System: Plasmodium falciparum
Experiment: Antiplasmodial activity against late-ring/early trophozoite intraerythrocytic stage of synchronized Plasmodium falciparum 3D7 after 72 hrs by LDH assay
Assay type: functional, organism-based
Details: 3D7, 72 h

IC50: 9 nM
SMILES: Cc1cc2c(c(=O)[nH]1)C(=O)[C@]1(O)c3c(O)c4c(c5c3[C@@H](C[C@@H]1C2=O)OCO5)O[C@@H]1[C@H](O)C=CC[C@H]1C4=O

Source: ChEMBL document CHEMBL4145624, “MDN-0185, an Antiplasmodial Polycyclic Xanthone Isolated from Micromonospora sp. CA-256353” (J Nat Prod, 2018)
